Consider 30 compounds from US8742110B2, “Spiroxazolidinone compounds” (Merck Sharp & Dohme Corp., priority 2010, dated 2014).

SMILES strings stand for the structures. Where a name gives a salt, the structure may show the parent alone.

The target in this assay is SSTR5 (Homo sapiens (Human), UniProt P35346). The experiment in a line: SSTR5 binding assay. To be noted: CHO-K1 membranes expressing cloned human SSTR5. A digest of the protocol: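 Competition binding on membranes from CHO-K1 cells stably expressing cloned human receptor, using radiolabeled somatostatin in 50 mM Tris-HCl pH 7.8 with EGTA, MgCl2 and protease inhibitors. Unlabeled compounds tested from 0.01 nM to 10,000 nM.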
Sequence of SSTR5 (P35346 whole entry): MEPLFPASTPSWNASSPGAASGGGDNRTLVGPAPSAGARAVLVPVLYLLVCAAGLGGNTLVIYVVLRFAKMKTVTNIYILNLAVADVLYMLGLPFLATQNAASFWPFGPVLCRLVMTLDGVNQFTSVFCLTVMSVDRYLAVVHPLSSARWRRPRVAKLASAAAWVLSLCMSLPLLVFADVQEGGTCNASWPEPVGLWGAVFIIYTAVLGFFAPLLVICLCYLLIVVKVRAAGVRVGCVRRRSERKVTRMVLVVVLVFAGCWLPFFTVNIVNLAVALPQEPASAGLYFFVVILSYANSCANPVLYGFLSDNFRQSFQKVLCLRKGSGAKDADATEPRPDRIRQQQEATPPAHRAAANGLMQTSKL
`O=C(O)c1ccc(N2CC3(CCN(Cc4cc5c(cc4-c4cc(F)c(F)cc4F)CCC5)CC3)OC2=O)cc1` [Example 4-19, 4-(2-Oxo-8-{[6-(2,4,5-trifluorophenyl)-2,3-dihydro-1H-inden-5-yl]methyl}-1-oxa-3,8-diazaspiro[4.5]dec-3-yl)benzoic acid, TFA salt] yielded an IC50 of 0.243 nM. In other words, the sub-nanomolar range.
The figure for `CCOc1cc(CN2CCC3(CC2)CN(c2ccc(C(=O)O)cc2)C(=O)O3)c(-c2ccc(C(F)(F)F)nc2)cc1C` [Example 4-20, 4-(8-{5-Ethoxy-4-methyl-2-[6-(trifluoromethyl)pyridin-3-yl]benzyl}-2-oxo-1-oxa-3,8-diazaspiro[4.5]dec-3-yl)benzoic acid, TFA salt] is 0.632 nM; for `CCOc1cc(CN2CCC3(CC2)CN(c2ccc(C(=O)O)cc2F)C(=O)O3)c(-c2ccc(F)c(F)c2F)cc1C` [Example 4-21, 4-{8-[(4-Ethoxy-2′,3′,4′-trifluoro-5-methylbiphenyl-2-yl)methyl]-2-oxo-1-oxa-3,8-diazaspiro[4.5]dec-3-yl}-3-fluorobenzoic acid, TFA salt] it is 0.397 nM.
With `CCOc1cc(CN2CCC3(CC2)CN(c2ccc(C(=O)O)cc2Cl)C(=O)O3)c(-c2ccc(F)c(F)c2F)cc1C` [Example 4-22, 3-Chloro-4-{8-[(4-ethoxy-2′,3′,4′-trifluoro-5-methylbiphenyl-2-yl)methyl]-2-oxo-1-oxa-3,8-diazaspiro[4.5]dec-3-yl}benzoic acid, TFA salt], the IC50 stood at 0.468 nM.
In turn, `Cc1ccc(-c2cc(C)c(Cl)cc2CN2CCC3(CC2)CN(c2ccc(C(=O)O)cc2)C(=O)O3)cn1` [Example 4-23, 4-{8-[5-Chloro-4-methyl-2-(6-methylpyridin-3-yl)benzyl]-2-oxo-1-oxa-3,8-diazaspiro[4.5]dec-3-yl}benzoic acid, TFA salt] showed an IC50 of 2.3 nM.
Next, `Cc1cc(-c2cc(F)c(F)cc2F)c(CN2CCC3(CC2)CN(c2ccc(C(=O)O)cc2)C(=O)O3)cc1Cl` [Example 4-24, 4-{8-[(4-Chloro-2′,4′,5′-trifluoro-5-methylbiphenyl-2-yl)methyl]-2-oxo-1-oxa-3,8-diazaspiro[4.5]dec-3-yl}benzoic acid, TFA salt]: 1.13 nM; `Cc1cc(-c2ccc(F)nc2)c(CN2CCC3(CC2)CN(c2ccc(C(=O)O)cc2)C(=O)O3)cc1Cl` [Example 4-25, 4-{8-[5-Chloro-2-(6-fluoropyridin-3-yl)-4-methylbenzyl]-2-oxo-1-oxa-3,8-diazaspiro[4.5]dec-3-yl}benzoic acid, TFA salt]: 1.31 nM.
The figure for `Cc1cc(-c2ccc(C(F)(F)F)nc2)c(CN2CCC3(CC2)CN(c2ccc(C(=O)O)cc2)C(=O)O3)cc1Cl` [Example 4-26, 4-(8-{5-Chloro-4-methyl-2-[6-(trifluoromethyl)pyridin-3-yl]benzyl}-2-oxo-1-oxa-3,8-diazaspiro[4.5]dec-3-yl)benzoic acid, TFA salt] is 9.35 nM.
Next, `CCOc1ccc(-c2nccs2)c(CN2CCC3(CC2)CN(c2ccc(C(=O)O)cc2)C(=O)O3)c1` [Example 4-27, 4-{8-[5-Ethoxy-2-(1,3-thiazol-2-yl)benzyl]-2-oxo-1-oxa-3,8-diazaspiro[4.5]dec-3-yl}benzoic acid, TFA salt]: 1.5 nM; `CCOc1cc(CN2CCC3(CC2)CN(c2ccc(C(=O)O)cc2)C(=O)O3)c(-n2cc(C)cn2)cc1C` [Example 4-28, 4-{8-[5-Ethoxy-4-methyl-2-(4-methyl-1H-pyrazol-1-yl)benzyl]-2-oxo-1-oxa-3,8-diazaspiro[4.5]dec-3-yl}benzoic acid, TFA salt]: 0.395 nM.
`Cc1cc(CN2CCC3(CC2)CN(c2ccc(C(=O)O)cc2)C(=O)O3)cc2c1OCC2(C)C` [Example 5-1, 4-{2-Oxo-8-[(3,3,7-trimethyl-2,3-dihydro-1-benzofuran-5-yl)methyl]-1-oxa-3,8-diazaspiro[4.5]dec-3-yl}benzoic acid, TFA salt] displayed an IC50 of 2.38 nM.
Next, `CCOc1cc(CN2CCC3(CC2)CN(c2ccc(C(=O)O)cc2)C(=O)O3)cc2c(OC)cccc12` [Example 5-2, 4-{8-[(4-Ethoxy-8-methoxynaphthalen-2-yl)methyl]-2-oxo-1-oxa-3,8-diazaspiro[4.5]dec-3-yl}benzoic acid, TFA salt]: 0.704 nM.
`CCOc1cc(CN2CCC3(CC2)CN(c2ccc(C(=O)O)cc2)C(=O)O3)cc2c(OCC)cccc12` [Example 5-3, 4-{8-[(4,8-Diethoxynaphthalen-2-yl)methyl]-2-oxo-1-oxa-3,8-diazaspiro[4.5]dec-3-yl}benzoic acid, TFA salt] registered a concentration for half-maximal inhibition (IC50) of 0.98 nM.
`CCOc1cc(C)nc2c(OCC)cc(CN3CCC4(CC3)CN(c3ccc(C(=O)O)cc3)C(=O)O4)cc12` [Example 5-4, 4-{8-[(4,8-Diethoxy-2-methylquinolin-6-yl)methyl]-2-oxo-1-oxa-3,8-diazaspiro[4.5]dec-3-yl}benzoic acid, TFA salt] had an IC50 of 65.2 nM. Against the preceding compound, the IC50 is about 67-fold higher.
Turning to `CCOc1cc(CN2CCC3(CC2)CN(c2ccc(C(=O)O)cc2)C(=O)O3)cc2c(OC)cc(Cl)cc12` [Example 5-5, 4-{8-[(6-Chloro-4-ethoxy-8-methoxynaphthalen-2-yl)methyl]-2-oxo-1-oxa-3,8-diazaspiro[4.5]dec-3-yl}benzoic acid, TFA salt], the IC50 amounted to 0.65 nM.
As for `COc1cc(CN2CCC3(CC2)CN(c2ccc(C(=O)O)cc2)C(=O)O3)cc2c(OC)cccc12` [Example 5-6, 4-{8-[(4,8-Dimethoxynaphthalen-2-yl)methyl]-2-oxo-1-oxa-3,8-diazaspiro[4.5]dec-3-yl}benzoic acid, TFA salt], the IC50 worked out at 0.172 nM.
Next, `CCOc1cc(CN2CCC3(CC2)CN(c2ccc(C(=O)O)cc2)C(=O)O3)cc2c(OC)ccc(Cl)c12` [Example 5-7, 4-{8-[(5-Chloro-4-ethoxy-8-methoxynaphthalen-2-yl)methyl]-2-oxo-1-oxa-3,8-diazaspiro[4.5]dec-3-yl}benzoic acid, TFA salt]: 0.233 nM; `CCOc1cc(CN2CCC3(CC2)CN(c2ccc(C(=O)O)cc2)C(=O)O3)cc2cnc(C(F)(F)F)cc12` [Example 5-8, 4-(8-{[5-Ethoxy-3-(trifluoromethyl)isoquinolin-7-yl]methyl}-2-oxo-1-oxa-3,8-diazaspiro[4.5]dec-3-yl)benzoic acid, TFA salt]: 0.424 nM.
The compound `CCOc1cc(CN2CCC3(CC2)CN(c2ccc(C(=O)O)cc2)C(=O)O3)cc2ccc(C(F)(F)F)nc12` [Example 5-9, 4-(8-{[8-Ethoxy-2-(trifluoromethyl)quinolin-6-yl]methyl}-2-oxo-1-oxa-3,8-diazaspiro[4.5]dec-3-yl)benzoic acid, TFA salt] registered an IC50 of 11.3 nM.
Compound `CC1(C)CC(C)(C)c2cc(CN3CCC4(CC3)CN(c3ccc(C(=O)O)cc3)C(=O)O4)ccc2O1` [Example 5-11, 4-{2-Oxo-8-[(2,2,4,4-tetramethyl-3,4-dihydro-2H-chromen-6-yl)methyl]-1-oxa-3,8-diazaspiro[4.5]dec-3-yl}benzoic acid, TFA salt] came in with an IC50 of 14 nM.
Next, `CC1(C)CCc2cc(CN3CCC4(CC3)CN(c3ccc(C(=O)O)cc3)C(=O)O4)ccc2O1` [Example 5-12, 4-{2-Oxo-8-[(2,2-dimethyl-3,4-dihydro-2H-chromen-6-yl)methyl]-1-oxa-3,8-diazaspiro[4.5]dec-3-yl}benzoic acid, TFA salt]: 29.4 nM; `Cc1cc(CN2CCC3(CC2)CN(c2ccc(C(=O)O)cc2)C(=O)O3)cc2c1OCCC2(C)C` [Example 5-13, 4-{2-Oxo-8-[(4,4,8-trimethyl-3,4-dihydro-2H-chromen-6-yl)methyl]-1-oxa-3,8-diazaspiro[4.5]dec-3-yl}benzoic acid, TFA salt]: 0.317 nM.
`CC1(C)CCOc2c(F)cc(CN3CCC4(CC3)CN(c3ccc(C(=O)O)cc3)C(=O)O4)cc21` [Example 5-14, 4-{8-[(8-Fluoro-4,4-dimethyl-3,4-dihydro-2H-chromen-6-yl)methyl]-2-oxo-1-oxa-3,8-diazaspiro[4.5]dec-3-yl}benzoic acid, TFA salt] had an IC50 of 3.62 nM. This IC50 lies about 11-fold higher than the previous one.
`CC1(C)CCOc2c(Cl)cc(CN3CCC4(CC3)CN(c3ccc(C(=O)O)cc3)C(=O)O4)cc21` [Example 5-15, 4-{8-[(8-Chloro-4,4-dimethyl-3,4-dihydro-2H-chromen-6-yl)methyl]-2-oxo-1-oxa-3,8-diazaspiro[4.5]dec-3-yl}benzoic acid, TFA salt] came in with an IC50 of 1.25 nM.
Next, `Cc1cc(CN2CCC3(CC2)CN(c2ccc(C(=O)O)cc2)C(=O)O3)cc2c1OCCC2C` (stereo not drawn) [Example 5-16, 4-{8-[(4,8-Dimethyl-3,4-dihydro-2H-chromen-6-yl)methyl]-2-oxo-1-oxa-3,8-diazaspiro[4.5]dec-3-yl}benzoic acid, TFA salt]: 1.81 nM; `O=C(O)c1ccc(N2CC3(CCN(Cc4ccc5c(c4)OCO5)CC3)OC2=O)cc1` [Example 5-17, 4-{8-[(1,3-Benzodioxol-5-yl)methyl]-2-oxo-1-oxa-3,8-diazaspiro[4.5]dec-3-yl}benzoic acid, TFA salt]: 210 nM; `CC1(C)Cc2cc(CN3CCC4(CC3)CN(c3ccc(C(=O)O)cc3)C(=O)O4)ccc2O1` [Example 5-18, 4-{8-[(2,2-Dimethyl-2,3-dihydro-1-benzofuran-5-yl)methyl]-2-oxo-1-oxa-3,8-diazaspiro[4.5]dec-3-yl}benzoic acid, TFA salt]: 45.3 nM.
In the case of `O=C(O)c1ccc(N2CC3(CCN(Cc4n[nH]c5ccc(F)cc45)CC3)OC2=O)cc1` [Example 6-1, 4-{8-[(5-Fluoro-1H-indazol-3-yl)methyl]-2-oxo-1-oxa-3,8-diazaspiro[4.5]dec-3-yl}benzoic acid, TFA salt], the IC50 was 1170 nM.
Next, `COc1ccc2c(CN3CCC4(CC3)CN(c3ccc(C(=O)O)cc3)C(=O)O4)n[nH]c2c1` [Example 6-2, 4-{8-[(6-Methoxy-1H-indazol-3-yl)methyl]-2-oxo-1-oxa-3,8-diazaspiro[4.5]dec-3-yl}benzoic acid, TFA salt]: 1740 nM; `CCCn1nc(CN2CCC3(CC2)CN(c2ccc(C(=O)O)cc2)C(=O)O3)c2ccc(OC)cc21` [Example 6-3, 4-{8-[(6-Methoxy-1-propyl-1H-indazol-3-yl)methyl]-2-oxo-1-oxa-3,8-diazaspiro[4.5]dec-3-yl}benzoic acid, TFA salt]: 156 nM.

The term IC50 denotes the midpoint of a concentration-inhibition curve. A lower IC50 goes with inhibition by little substance.
